{"source": "patent US20100233131A1", "about": "(PUSAN NATIONAL UNIVERSITY INDUSTRY-UNIVERSITY COOP, priority 2008, published 2010)", "type_in_all_cases": "cell-based, human", "key": {"ATSCs [1]": {"system": "ATSCs", "assay": "ROS generation (DCF fluorescence)"}, "ATSCs [2]": {"system": "ATSCs", "assay": "Colony forming unit (CFU) assay", "details": "5 ng/ml selenium 3 days, colonies counted after 15 days, vs control ATSCs", "description": "Also, the proliferation efficiency of colony forming units (CFU) in the selenium-treated cells was evaluated. […] First, the ATSCs were seeded in 10 cm dishes at a density of 5×10^5 and cultured in a 2% FBS-containing α-MEM medium for 8 hours at 37° C. in a CO2 incubator. […] After 15 days, the cells were fixed with 4% paraformaldehyde (PFA) for 30 minutes at room temperature and stained with 0.1% toluidine blue dissolved in 1% PFA. The proliferation efficiency of the CFU was evaluated via visual colony counts."}, "ATSCs [3]": {"system": "ATSCs", "assay": "Western blot of proliferation-related signaling proteins", "details": "time-dependent"}, "ATSCs [4]": {"system": "ATSCs", "assay": "Telomerase activity of selenium-treated ATSCs", "details": "5 ng/ml selenium for 3 days", "source_text": "An increase in telomerase activity is a characteristic of a stem cell, and a decrease in telomerase activity indicates differentiation of the cells."}, "ATSCs [5]": {"system": "ATSCs", "assay": "Prolonged culture / proliferation lifespan", "source_text": "During prolonged culture periods, the population of control ATSCs underwent a progressive reduction in proliferation potential. The cells finally underwent senescence after 21 to 23 passages (90 to 100 days in culture). At the end of the proliferation lifespan, the cells were flattered and larger in morphology in a monolayer similar to that described for senescent fibroblasts. […] The rate of proliferation of selenium-treated ATSCs resembled that of the control ATSCs."}, "ATSCs [6]": {"system": "ATSCs", "assay": "Oligonucleotide microarray analysis of gene expression", "details": "vs control ATSCs", "description": "To confirm the pattern of gene expression, oligonucleotide microarray analysis was performed."}, "ATSCs [7]": {"system": "ATSCs", "assay": "Cell scraped wound model assay", "description": "Cells were seeded into 60 mm culture dishes, and a straight line was lightly carved across the center, outer and bottom surface of each dish with a scalpel. The ATSCs were incubated overnight in a serum-free medium, scraped from one side of the marked line, and washed three times with a medium to remove loose or dead cells. […] The control dish was also scratched in the same manner as described above, and incubated in a selenium-free medium. Cells migrated across the marked reference line were photographed under a phase contrast microscope."}, "ATSCs [8]": {"system": "ATSCs", "assay": "Molecular marker expression by real time RT-PCR and Western blot", "source_text": "The expression of molecular markers in both the control ATSCs and the selenium-treated cells was verified via real time RT-PCR and Western blot analysis."}, "ATSCs [9]": {"system": "ATSCs", "assay": "Differentiation into insulin-producing cells", "details": "after beta-cell-like differentiation, vs differentiated control ATSCs", "description": "Moreover, for differentiation of cells similar to beta cells, cells were cultured in “N2 media-NA” containing DMEM/F12 (Gibco-Invitrogen) supplemented with 10 mM nicotinamide, ITS (1:50), B27 (1:50; Invitrogen) and 15% FBS. After 24-hour culture, the medium was changed with a high glucose (3500 mg/L)-containing differentiation medium for 2 weeks. After the induction of differentiation, double immunocytochemistry was conducted using insulin (1:800; Sigma) and c-peptide (1:100; Milipore) antibodies."}, "ATSCs [10]": {"system": "ATSCs", "assay": "Osteogenic and adipogenic differentiation in vitro", "description": "To estimate the differentiation potential of selenium-treated ATSCs, osteogenic and adipogenic differentiation potential was evaluated.\nIn the present embodiment, it was confirmed that the selenium-treated ATSCs accumulated significant amounts of calcium and lipid droplets after only one week of osteogenetic and adipogenetic induction in vitro (FIG. 17). Differences in formation of bone nodules and lipid droplets between the control and selenium-treated ATSCs were estimated by calculating the number of stained bone nodules and lipid droplets in 25 randomly selected fields (regions)."}, "ATSCs [11]": {"system": "ATSCs", "assay": "Neural differentiation in vitro", "source_text": "In an attempt to estimate differentiation potential of selenium-treated ATSCs into neural cells in vitro, low levels of Nestin protein expression were detected in the selenium-treated ATSCs after the induction of differentiation (FIG. 19). After neural differentiation, the selenium-treated ATSCs expressed higher levels of Tuj, GFAP, MAP2ab and NF160 than the control ATSCs (FIG. 19). […] It means that there is a difference in differential potential between the control ATSCs and the selenium-treated ATSCs."}, "[12]": {"system": "Rex1, Nanog and Oct4 promoter regions", "assay": "Bisulfite sequencing of CpG methylation on stemness gene promoter regions", "description": "Also, a bisullipide sequencing analysis was performed in order to establish 5′-3′ CpG methylation profiles across a proximal promoter, a proximal enhancer and an early transcription start site (TSS) of each gene.\nGenomic DNA of ATSCs was purified by phenol/chloroform/isoamylalcohol extraction, and chloroform extraction once, and then was precipitated with ethanol. The DNA was dissolved in distilled water. Bisullipide conversion was performed using EZ DNA Methylation-Gold Kit (Zymo Research, USA), as described by a manufacturer. That is, unmethylated cytosines on the DNA were converted into uracils via the heat-denaturation of DNA with specifically designed CT conversion reagent. The DNA was then desulphonated and subsequently cleaned and eluted. The bisulfite-modified DNA was then immediately used for PCR or stored at −20° C. or below. The converted DNA was amplified via PCR using primers designed with MethPrimer (http://www.urogene.org/methprimer). The PRC was conducted in a MyGenie 96 Gradient Thermal Block (Bioneer, Daejeon, South Korea) according to the following protocol, including 95° C. for 15 minutes, 40 cycles of 95° C. for 20 seconds, 43 to 58° C. for 40 seconds, and 72° C. for 30 seconds, elongation at 72° C. for 10 minutes and soaking at 4° C. After electrophoresis on 1.5% agarose gel, the remaining PCR products were cloned into bacteria (DH5α) by the pGEM T-Easy Vector System I (Promega, Madison, Wis., USA). The DNA extracted from bacterial clones were analyzed via sequencing with M13 reverse primers using the ABI 3730XL capillary DNA sequencer (Applied Biosystems, Foster City, Calif., USA), and represented as rows of circles, each circle denoting the methylation status of CpG."}}, "data": [{"smiles": "O=[Se]([O-])[O-].[Na+].[Na+]", "note": "[selenium, sodium selenite]", "values": [{"measurement": "increased fluorescence intensity of DCF (ROS generation)", "setting": "ATSCs [1]", "value": "compensated"}, {"measurement": "cell proliferation increase by CFU levels", "setting": "ATSCs [2]", "value": "at least 1.8 times"}, {"measurement": "activation of PI3K and downstream mediators (p-Rac, p-c-Raf, p-MEK, p-ERK, p-Stat3, p-Akt)", "setting": "ATSCs [3]; 0, 3, 6 and 12 hours", "value": "significant activation"}, {"measurement": "concentration of apoptosis-related protein p-SAPK/JNK", "setting": "ATSCs [3]", "value": "reduced"}, {"measurement": "increase in telomerase activity", "setting": "ATSCs [4]", "value": 2, "unit": "fold"}, {"measurement": "passages of continuous growth", "setting": "ATSCs [5]", "value": "> 21", "unit": "passages"}, {"measurement": "duration of continuous growth", "setting": "ATSCs [5]; control ATSCs senescent after 21 to 23 passages", "value": "more than 3 months"}, {"measurement": "upregulation of cell proliferation-associated genes", "setting": "ATSCs [6]", "value": 42, "unit": "%"}, {"measurement": "migration of ATSCs across the reference line", "setting": "ATSCs [7]; 5 ng/ml selenium, 24 hours, vs control ATSCs", "value": "three times higher"}, {"measurement": "expression of migration-associated factors MMP1, MMP3, SDF1, VEGF and CXCR4", "setting": "ATSCs [7]; after selenium treatment", "value": "increases in expression"}, {"measurement": "acetylation of Histones 3 and 4", "setting": "ATSCs [8]", "value": "attenuated"}, {"measurement": "expression of GFAP, Tuj, p53 and p21", "setting": "ATSCs [8]", "value": "downregulation"}, {"measurement": "expression of Nestin and c-Myc", "setting": "ATSCs [8]", "value": "induced expression"}, {"measurement": "Rex1 expression", "setting": "ATSCs [8]; vs control ATSCs", "value": "significantly increased"}, {"measurement": "expression of stemness and functional genes (Rex1, Nanog, Oct4, Sox2, Runx3, CDK1, CDK2, Nestin, VEGF, FGFR1)", "setting": "ATSCs [8]; vs control ATSCs", "value": "overexpression"}, {"measurement": "insulin secretion with C-peptide", "setting": "ATSCs [9]", "value": "secreted a significant amount of insulin"}, {"measurement": "lipid droplets vs control ATSCs", "setting": "ATSCs [10]; adipogenic induction, eluted dye quantitative assay", "value": "six-fold more"}, {"measurement": "level of osteonectin, RXR and osteopontin mRNA", "setting": "ATSCs [10]; during osteogenesis", "value": "significant increases"}, {"measurement": "levels of AP and PPAR-γ mRNAs", "setting": "ATSCs [10]; in adipogenesis", "value": "significant increases"}, {"measurement": "bone nodules vs control ATSCs", "setting": "ATSCs [10]; osteogenic induction, eluted dye quantitative assay", "value": "Five-fold more"}, {"measurement": "acetyl-histones 3 and 4 (Western blot)", "setting": "ATSCs [11]; after neural differentiation", "value": "overexpressed"}, {"measurement": "expression of Tuj, GFAP, MAP2ab and NF160", "setting": "ATSCs [11]; after neural differentiation, vs control ATSCs", "value": "higher levels"}, {"measurement": "neural differentiation (MAP2ab/total cells)", "setting": "ATSCs [11]; control ATSCs 2.4%", "value": "9.0 % of total cells"}, {"measurement": "Nanog promoter methylation", "setting": "[12]; third region (-86 to +66) to the TSS", "value": "effectively demethylated"}, {"measurement": "Oct4 promoter CpG methylation", "setting": "[12]; third region, control ATSCs 65.7%", "value": 30.3, "unit": "%"}, {"measurement": "Rex1 region CpG methylation", "setting": "[12]; third region, control ATSCs 72.2%", "value": 42.2, "unit": "%"}]}]}
